{
  "source": "patent US20060223888A1",
  "about": "“Valproic acid analogues and pharmaceutical composition thereof” (priority 2002, published 2006)",
  "key": {"rat liver": {"system": "rat liver", "conditions": "cited from earlier work"}, "[1]": {"system": "Maximal Electroshock (MES) seizures", "experiment": "Maximal electroshock (MES) test, rats, oral, time to peak effect", "type": "in vivo", "conditions": "50 mg/kg", "method": "Anticonvulsant testing was conducted at the antiepileptic screening facility of the National Institute for Neurological Disorders and Stroke in Rockville, Md. Initial tests were done in mice (i.p.) followed by oral and i.p. administration to rats. Neurotoxicity was evaluated with the rotarod test. Maximal electroshock (MES) and subcutaneous methylene tetrazole (SCMET) or pentylene tetrazole (PTZ) were the most common tests performed. Typical procedures are described below. MES Assay. Male CD1/CR mice weighing from 25-35 g are administrated test compounds 15 minutes prior to MES. Mice are challenged by pulsed electrical stimulation (50 mA, 0.4 s duration, pulse width 0.5 ms, 60 pulses/sec) via corneal electrodes to induce seizure. Mice are observed post-stimulation for the onset of tonic seizures, and considered to have a tonic seizure only if there is a prolonged extension (>90° from plane of body) of the hind legs. […] Ten mice are used in each group. A number of VPA analogues and their sodium salts were tested for their efficacy as anticonvulsants and for their toxicity using the MES Assay and rotarod test."}, "PTZ-induced seizures": {"system": "PTZ-induced seizures", "experiment": "ED50 against PTZ-induced seizures, i.p.", "type": "in vivo", "conditions": "Rattus norvegicus, ip, male Sprague-Dawley rats (n = 8)", "description": "These compounds were investigated for anticonvulsant activity in mice^13 and rats (see results in Table 4) and found to be equivalent in potency to VPA."}, "[2]": {"experiment": "Pharmacokinetics and tissue distribution (plasma, liver, brain) after i.p. administration", "type": "in vivo, male Sprague-Dawley rats", "conditions": "rat; for Affinity for / accumulation in the liver (in words): FIG. 1, Table 5"}, "[3]": {"system": "Subcutaneous Methylene Tetrazole (SCMET) seizures", "experiment": "Subcutaneous methylene tetrazole (SCMET) test, rats, oral, time to peak effect", "type": "in vivo", "conditions": "75 mg/kg"}, "[4]": {"system": "rotarod test (neurotoxicity)", "experiment": "Rotarod neurotoxicity test (TOX), rats, oral", "type": "in vivo", "method": "Anticonvulsant testing was conducted at the antiepileptic screening facility of the National Institute for Neurological Disorders and Stroke in Rockville, Md. Initial tests were done in mice (i.p.) followed by oral and i.p. administration to rats. Neurotoxicity was evaluated with the rotarod test. Maximal electroshock (MES) and subcutaneous methylene tetrazole (SCMET) or pentylene tetrazole (PTZ) were the most common tests performed. Typical procedures are described below.\nRotorod Test. Acute drug induced neurotoxicity is detected in mice using the standard rotorod test. An untreated mouse, when placed on a 6 rpm rotation rod, can maintain its equilibrium for a prolonged period of time.\nA number of VPA analogues and their sodium salts were tested for their efficacy as anticonvulsants and for their toxicity using the MES Assay and rotarod test. In particular, the following compounds (as shown in the structures below) were tested: 332059U (sodium salt of VPA), 325071 (known compound, tested for comparison), 325073A (metabolite of VPA), 332060U (4,4-difluoro-2-propylpentanoate, fluorinated analogue of VPA), 341031, and 341032U (conjugated (E,Z)-2,3′-diene VPA analogues)."}, "[5]": {"conditions": "children born to mothers treated with VPA; cited from earlier work"}},
  "data": [
    {"smiles": "C=CCC(CCC)C(=O)O", "note": "(stereo not shown) [4-ene VPA, 2-propylpent-4-enoic acid]", "values": [
      {"measurement": "Lipid accumulation in rat liver", "setting": "rat liver", "result": "induce massive lipid accumulation in rat liver"}
    ]},
    {"smiles": "C/C=C\\C(=C/CC)C(=O)[O-].[Na+]", "note": "[325073A, Sodium (2E)-2-[(1Z)-prop-1-en-1-yl]pent-2-enoate]", "values": [
      {"measurement": "MES N/F = number of animals protected relative to number tested", "setting": "[1]; 0.25 h", "result": "2/4"},
      {"measurement": "MES N/F = number of animals protected relative to number tested", "setting": "[1]; 0.5 h", "result": "0/4"},
      {"measurement": "MES N/F = number of animals protected relative to number tested", "setting": "[1]; 1.0 h", "result": "0/4"},
      {"measurement": "MES N/F = number of animals protected relative to number tested", "setting": "[1]; 2.0 h", "result": "0/4"},
      {"measurement": "ED50", "setting": "PTZ-induced seizures", "result": 168, "unit": "mg/kg"},
      {"measurement": "Distribution to the brain (in words)", "setting": "[2]; FIG. 1", "result": "rapid distribution to the brain"},
      {"measurement": "Affinity for / accumulation in the liver (in words)", "setting": "[2]; listed as (E,Z)-2,3′-diene VPA", "result": "significantly reduced affinity for the liver"},
      {"measurement": "Affinity for / accumulation in the liver (in words)", "setting": "[2]; listed as (E,Z)-2,3′-diene-VPA", "result": "markedly reduced affinities for liver"},
      {"measurement": "SCMET N/F = number of animals protected relative to number tested", "setting": "[3]; 0.25 h", "result": "1/4"},
      {"measurement": "SCMET N/F = number of animals protected relative to number tested", "setting": "[3]; 0.5 h", "result": "0/4"},
      {"measurement": "SCMET N/F = number of animals protected relative to number tested", "setting": "[3]; 1.0 h", "result": "0/4"},
      {"measurement": "SCMET N/F = number of animals protected relative to number tested", "setting": "[3]; 2.0 h", "result": "0/4"},
      {"measurement": "SCMET N/F = number of animals protected relative to number tested", "setting": "[3]; 4.0 h", "result": "0/4"}
    ]},
    {"smiles": "CCCC(CCC)C(=O)[O-].[Na+]", "note": "[332059A, Sodium 2-propylpentanoate, reference compound]", "values": [
      {"measurement": "TOX: N/F = number of animals that failed the rotarod test to numbers tested", "setting": "[4]; 300 mg/kg, 0.25 h", "result": "0/4"},
      {"measurement": "TOX: N/F = number of animals that failed the rotarod test to numbers tested", "setting": "[4]; 300 mg/kg, 0.5 h", "result": "0/4"},
      {"measurement": "TOX: N/F = number of animals that failed the rotarod test to numbers tested", "setting": "[4]; 300 mg/kg, 1.0 h", "result": "0/4"},
      {"measurement": "TOX: N/F = number of animals that failed the rotarod test to numbers tested", "setting": "[4]; 300 mg/kg, 2.0 h", "result": "0/4"},
      {"measurement": "TOX: N/F = number of animals that failed the rotarod test to numbers tested", "setting": "[4]; 300 mg/kg, 4.0 h", "result": "0/4"},
      {"measurement": "TOX: N/F = number of animals that failed the rotarod test to numbers tested", "setting": "[4]; 400 mg/kg, 0.5 h", "result": "0/4"},
      {"measurement": "TOX: N/F = number of animals that failed the rotarod test to numbers tested", "setting": "[4]; 400 mg/kg, 1.0 h", "result": "0/4"},
      {"measurement": "TOX: N/F = number of animals that failed the rotarod test to numbers tested", "setting": "[4]; 400 mg/kg, 2.0 h", "result": "0/4"},
      {"measurement": "ED50", "setting": "PTZ-induced seizures", "result": 158, "unit": "mg/kg"},
      {"measurement": "Neural tube defects leading to spina bifida, share of children born to treated mothers", "setting": "[5]", "result": "1-2%"}
    ]},
    {"smiles": "C=C/C=C(\\CCC)C(=O)O", "note": "[(E)-2,4-diene-VPA, 2-propylpent-(E)-2,4-dienoic acid]", "values": [
      {"measurement": "Lipid accumulation in rat liver", "setting": "rat liver", "result": "induce massive lipid accumulation in rat liver"}
    ]}
  ]
}
